The source made the active and inactive calls. The calls are words filed in the database; no cut-off is given here.
Key:
COLO 205 = experiment: Growth inhibition of human COLO205 cells after 48 hrs by SRB staining method; assay type: functional; details: COLO 205, 48 h; for TGI: read-out: pTGI (converted)
HCT-116 = experiment: Growth inhibition of human HCT116 cells after 48 hrs by SRB staining method; assay type: functional; details: HCT-116, 48 h; for TGI: read-out: pTGI (converted)
HT-29 = experiment: Growth inhibition of human HT29 cells after 48 hrs by SRB staining method; assay type: functional; details: HT-29, 48 h
SF-295 = experiment: Growth inhibition of human SF295 cells after 48 hrs by SRB staining method; assay type: functional; details: SF-295, 48 h; for TGI: read-out: pTGI (converted)
SF-539 = experiment: Growth inhibition of human SF539 cells after 48 hrs by SRB staining method; assay type: functional; details: SF-539, 48 h; for TGI: read-out: pTGI (converted)
Malme-3M = experiment: Growth inhibition of human MALME-3M cells after 48 hrs by SRB staining method; assay type: functional; details: for TGI: read-out: pTGI (converted)
M14 = experiment: Growth inhibition of human M14 cells after 48 hrs by SRB staining method; assay type: functional; details: M14, 48 h; for TGI: read-out: pTGI (converted)
UACC-257 = experiment: Growth inhibition of human UACC257 cells after 48 hrs by SRB staining method; assay type: functional; details: UACC-257, 48 h; for TGI: read-out: pTGI (converted)
IGROV-1 = experiment: Growth inhibition of human IGROV1 cells after 48 hrs by SRB staining method; assay type: functional; details: IGROV-1, 48 h; for TGI: read-out: pTGI (converted)
OVCAR-3 = experiment: Growth inhibition of human OVCAR-3 cells after 48 hrs by SRB staining method; assay type: functional; details: OVCAR-3, 48 h; for TGI: read-out: pTGI (converted)
OVCAR-4 = experiment: Growth inhibition of human OVCAR4 cells after 48 hrs by SRB staining method; assay type: functional; details: OVCAR-4, 48 h; for TGI: read-out: pTGI (converted)
OVCAR-5 = experiment: Growth inhibition of human OVCAR5 cells after 48 hrs by SRB staining method; assay type: functional; details: OVCAR-5, 48 h; for TGI: read-out: pTGI (converted)
CAKI-1 = experiment: Growth inhibition of human CAKI1 cells after 48 hrs by SRB staining method; assay type: functional; details: CAKI-1, 48 h; for CC50: read-out: pLC50 (the source's name) (converted); for TGI: read-out: pTGI (converted)
TK-10 = experiment: Growth inhibition of human TK10 cells after 48 hrs by SRB staining method; assay type: functional; details: TK-10, 48 h; for CC50: read-out: pLC50 (the source's name) (converted); for TGI: read-out: pTGI (converted)
PC-3 = experiment: Growth inhibition of human PC3 cells after 48 hrs by SRB staining method; assay type: functional; details: PC-3, 48 h; for CC50: read-out: pLC50 (the source's name) (converted); for TGI: read-out: pTGI (converted)
MCF7 = experiment: Growth inhibition of human MCF7 cells after 48 hrs by SRB staining method; assay type: functional; details: MCF7, 48 h; for CC50: read-out: pLC50 (the source's name) (converted); for TGI: read-out: pTGI (converted)
MDA-MB-231 = experiment: Growth inhibition of human MDA-MB-231 cells after 48 hrs by SRB staining method; assay type: functional; details: MDA-MB-231, 48 h; for CC50: read-out: pLC50 (the source's name) (converted); for TGI: read-out: pTGI (converted)
MDA-MB-435 = experiment: Growth inhibition of human MDA-MB-435 cells after 48 hrs by SRB staining method; assay type: functional; details: MDA-MB-435, 48 h; for CC50: read-out: pLC50 (the source's name) (converted); for TGI: read-out: pTGI (converted)
BT-549 = experiment: Growth inhibition of human BT549 cells after 48 hrs by SRB staining method; assay type: functional; details: BT-549, 48 h
T47D = experiment: Growth inhibition of human T47D cells after 48 hrs by SRB staining method; assay type: functional; details: for CC50: read-out: pLC50 (the source's name) (converted); for TGI: read-out: pTGI (converted)
[1] = biological target: T1, Dihydrofolate reductase (Homo sapiens) (UniProt P00374); experiment: Inhibition of human dihydrofolate reductase at 10 uM
T1 sequence (whole entry): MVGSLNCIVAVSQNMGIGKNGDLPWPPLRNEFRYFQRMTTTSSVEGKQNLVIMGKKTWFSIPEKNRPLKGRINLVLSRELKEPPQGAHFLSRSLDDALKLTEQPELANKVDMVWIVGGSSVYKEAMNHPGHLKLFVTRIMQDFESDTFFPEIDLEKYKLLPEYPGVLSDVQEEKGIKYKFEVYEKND

MOLT-4 = experiment: Growth inhibition of human MOLT4 cells after 48 hrs by SRB staining method; assay type: functional; details: MOLT-4, 48 h; for CC50: read-out: pLC50 (the source's name) (converted); for TGI: read-out: pTGI (converted)
Thymidylate synthase [2] = biological target: T2, Thymidylate synthase (Lactobacillus casei, UniProt P00469)
T2 sequence (P00469 whole entry): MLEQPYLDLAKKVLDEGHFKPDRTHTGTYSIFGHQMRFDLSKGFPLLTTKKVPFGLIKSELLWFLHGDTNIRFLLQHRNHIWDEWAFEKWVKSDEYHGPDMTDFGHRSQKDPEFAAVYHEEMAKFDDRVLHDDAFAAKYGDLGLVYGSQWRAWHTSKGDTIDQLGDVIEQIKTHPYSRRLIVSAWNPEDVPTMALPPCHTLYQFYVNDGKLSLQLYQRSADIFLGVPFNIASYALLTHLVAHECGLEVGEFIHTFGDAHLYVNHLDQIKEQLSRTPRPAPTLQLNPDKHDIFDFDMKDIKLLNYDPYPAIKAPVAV
Description: Inhibition of Lactobacillus casei thymidylate synthase

CCRF-CEM = experiment: Growth inhibition of human CCRF-CEM cells after 48 hrs by SRB staining method; assay type: functional
HL-60 = experiment: Growth inhibition of human HL60 cells after 48 hrs by SRB staining method; assay type: functional; details: HL-60, 48 h
Thymidylate synthase [3] = biological target: Thymidylate synthase (Homo sapiens, UniProt P04818)
Thymidylate synthase (Homo sapiens, UniProt P04818), sequence (P04818 whole entry): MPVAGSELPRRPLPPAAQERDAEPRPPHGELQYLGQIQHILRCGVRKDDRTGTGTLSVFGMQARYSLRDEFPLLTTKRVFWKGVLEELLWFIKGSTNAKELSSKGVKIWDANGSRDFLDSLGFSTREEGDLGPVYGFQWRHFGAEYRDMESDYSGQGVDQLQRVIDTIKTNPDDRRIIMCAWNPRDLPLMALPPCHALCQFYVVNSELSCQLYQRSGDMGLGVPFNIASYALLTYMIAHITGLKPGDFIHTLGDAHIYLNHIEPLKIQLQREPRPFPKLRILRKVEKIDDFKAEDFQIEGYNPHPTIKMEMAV
Description: Inhibition of human thymidylate synthase

[4] = read-out: pLC50 (the source's name) (converted)

## COc1ccc(Nc2nc3cc(N)cc(N)c3nc2-c2ccccc2)cc1OC
COLO 205
  GI50: 20 µM
  LC50: 85.1 µM
  TGI: 40.7 µM
HCT-116
  GI50: 14.8 µM
  LC50: 58.9 µM
  TGI: 29.5 µM
HT-29
  GI50: 25.1 µM
  LC50: > 100 µM
HT-29; read-out: pTGI (converted)
  TGI: 52.5 µM
SF-295
  GI50: 17 µM
  LC50: > 100 µM
  TGI: 45.7 µM
SF-539
  GI50: 16.2 µM
  LC50: 87.1 µM
  TGI: 37.2 µM
Malme-3M
  GI50: 15.8 µM
  LC50: 81.3 µM
  TGI: 35.5 µM
M14
  GI50: 20.9 µM
  LC50: > 100 µM
  TGI: 69.2 µM
UACC-257
  GI50: 35.5 µM
  LC50: > 100 µM
  TGI: > 100 µM
IGROV-1
  GI50: 24.5 µM
  LC50: > 100 µM
  TGI: > 100 µM
OVCAR-3
  GI50: 30.2 µM
  LC50: > 100 µM
  TGI: > 100 µM
OVCAR-4
  GI50: 18.6 µM
  LC50: > 100 µM
  TGI: 52.5 µM
OVCAR-5
  GI50: 29.5 µM
  LC50: > 100 µM
  TGI: 72.4 µM
CAKI-1
  GI50: 18.2 µM
  CC50: > 100 µM
  TGI: 66.1 µM
TK-10
  GI50: 20.9 µM
  CC50: > 100 µM
  TGI: 58.9 µM
PC-3
  GI50: 14.1 µM
  CC50: 93.3 µM
  TGI: 36.3 µM
MCF7
  GI50: 20.4 µM
  CC50: 97.7 µM
  TGI: 44.7 µM
MDA-MB-231
  GI50: 4.9 µM
  CC50: 46.8 µM
  TGI: 18.6 µM
MDA-MB-435
  GI50: 16.2 µM
  CC50: 63.1 µM
  TGI: 32.4 µM
BT-549
  GI50: 25.7 µM
BT-549; [4]
  CC50: > 100 µM
BT-549; read-out: pTGI (converted)
  TGI: 81.3 µM
T47D
  GI50: 14.5 µM
  CC50: > 100 µM
  TGI: 38 µM
[1]
  Activity: inactive
MOLT-4
  GI50: 6.92 µM
  CC50: > 100 µM
  TGI: > 100 µM
Thymidylate synthase [2]
  Ki: 6 µM

## Nc1cc(N)c2nc(-c3ccccc3)c(Nc3ccc(Cl)c(Cl)c3)nc2c1
COLO 205
  GI50: 11.7 µM
  LC50: 85.1 µM
  TGI: 31.6 µM
HCT-116
  GI50: 10.7 µM
  LC50: > 100 µM
  TGI: 52.5 µM
SF-295
  GI50: 12.3 µM
  LC50: 63.1 µM
  TGI: 28.2 µM
SF-539
  GI50: 17 µM
  LC50: 72.4 µM
  TGI: 35.5 µM
Malme-3M
  GI50: 10.2 µM
  LC50: 57.5 µM
  TGI: 24.5 µM
M14
  GI50: 14.8 µM
  LC50: > 100 µM
  TGI: 60.3 µM
UACC-257
  GI50: 11.5 µM
  LC50: 69.2 µM
  TGI: 28.2 µM
IGROV-1
  GI50: 4.9 µM
  LC50: 66.1 µM
  TGI: 20.9 µM
OVCAR-3
  GI50: 2.95 µM
  LC50: 37.2 µM
  TGI: 10 µM
OVCAR-4
  GI50: 11.2 µM
  LC50: > 100 µM
  TGI: 47.9 µM
OVCAR-5
  GI50: 28.2 µM
  LC50: 85.1 µM
  TGI: 49 µM
CAKI-1
  GI50: 13.5 µM
  CC50: 64.6 µM
  TGI: 29.5 µM
TK-10
  GI50: 13.8 µM
  CC50: 66.1 µM
  TGI: 30.2 µM
PC-3
  GI50: 3.09 µM
  CC50: 89.1 µM
  TGI: 15.1 µM
MCF7
  GI50: 5.01 µM
  CC50: 75.9 µM
  TGI: 20.9 µM
MDA-MB-231
  GI50: 5.75 µM
  CC50: > 100 µM
  TGI: 27.5 µM
MDA-MB-435
  GI50: 2.14 µM
  CC50: 9.77 µM
  TGI: 45.7 µM
T47D
  GI50: 11.5 µM
  CC50: 83.2 µM
  TGI: 30.9 µM
[1]
  Activity: inactive
CCRF-CEM
  GI50: 1290 nM
CCRF-CEM; [4]
  CC50: > 100 µM
HL-60
  GI50: 2570 nM
HL-60; [4]
  CC50: > 100 µM
HL-60; read-out: pTGI (converted)
  TGI: 72.4 µM
MOLT-4
  GI50: 4.07 µM
  CC50: > 100 µM
  TGI: > 100 µM
Thymidylate synthase [2]
  Ki: 1 µM
Thymidylate synthase [3]
  Ki: 900 nM

Source: ChEMBL document CHEMBL1149774, “Synthesis of N-(5,7-diamino-3-phenyl-quinoxalin-2-yl)-3,4,5-substituted anilines and N-[4[(5,7-diamino-3-phenylquinoxalin-2-yl)amino]benzoyl]-l-glutamic acid diethyl ester: evaluation of in vitro anti-cancer and anti-folate activities” (Eur J Med Chem, 2008)
